# Test results as given in article doi:10.1101/2024.12.02.625520, “Identification of Inhibitors of Chikungunya virus nsP2 ATPase” (bioRxiv, 2025).
# Where two headings read alike, the source gives them in different places.
# Experiments:
# [1] = target: T1, CHIKV nsP2 ATPase (Chikungunya virus, UniProt Q8JUX6); assay: Secondary CHIKV nsP2 ATPase assay (ADP-Glo); details: for Hill slope: ADP-Glo dose response
# [2] = target: T1, CHIKV nsP2 ATPase; assay: High throughput nsP2 ATPase activity assay (Malachite Green)
# [3] = Kinetic solubility; details: kinetic from dmso stock
# [4] = read-out: ADP-Glo IC50, Avge n=2, 1 nM CHIKV nsP2fl, 30 μM ATP, 30 min pre-incubation
# [5] = read-out: Malachite Green % INHIBITION (ORIGINAL)
# [6] = read-out: Malachite Green % INHIBITION (RESCREEN)
# T1 sequence (Q8JUX6 536-1333): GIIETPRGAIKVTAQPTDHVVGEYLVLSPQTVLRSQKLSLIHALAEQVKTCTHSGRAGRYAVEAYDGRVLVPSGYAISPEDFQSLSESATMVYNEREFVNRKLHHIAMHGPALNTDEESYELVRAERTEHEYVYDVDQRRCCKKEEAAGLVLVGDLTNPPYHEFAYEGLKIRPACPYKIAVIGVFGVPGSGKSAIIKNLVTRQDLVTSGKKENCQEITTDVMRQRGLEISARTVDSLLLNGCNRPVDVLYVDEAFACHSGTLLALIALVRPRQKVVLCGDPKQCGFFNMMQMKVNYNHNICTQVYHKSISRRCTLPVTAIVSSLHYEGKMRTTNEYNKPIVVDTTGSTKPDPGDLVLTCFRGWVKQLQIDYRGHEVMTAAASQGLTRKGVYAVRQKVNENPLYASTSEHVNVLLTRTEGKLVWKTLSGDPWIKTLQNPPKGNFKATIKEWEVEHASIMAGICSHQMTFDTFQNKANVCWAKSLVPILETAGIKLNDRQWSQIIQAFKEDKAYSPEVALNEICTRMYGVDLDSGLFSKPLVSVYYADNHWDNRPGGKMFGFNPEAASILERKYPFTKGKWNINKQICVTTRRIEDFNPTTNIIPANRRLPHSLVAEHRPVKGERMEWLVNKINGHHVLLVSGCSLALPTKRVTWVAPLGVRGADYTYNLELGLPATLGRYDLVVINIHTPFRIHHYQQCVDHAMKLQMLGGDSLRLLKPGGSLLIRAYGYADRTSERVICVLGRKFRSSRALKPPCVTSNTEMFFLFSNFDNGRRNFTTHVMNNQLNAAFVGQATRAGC
SMILES,Hill slope ([1]; Avge n=2),"IC50 [1, 4]","IC50 ([1]; read-out: ADP-Glo IC50, Avge n=2, 1 nM CHIKV nsP2fl, 30 μM ATP, 30 min pre-incubation, listed as 1798)","inhibition at 25 µM [2, 5]","inhibition at 25 µM [2, 6]",IC50 [1],solubility kinetic [3]
COc1ccc(OC)c(N2C(=O)/C(=C/c3ccco3)C(=O)NC2=S)c1 [RA-0001798],1.4,3.8 µM,< 10 µM,79%,74%,–,–
Clc1ccccc1CSC1=NC2(CCCCC2)Nc2ccccc21 [RA-0001813],–,–,–,66%,81%,–,–
Clc1cccc(CSC2=NC3(CCCCC3)Nc3ccccc32)c1 [RA-0001814],–,–,–,73%,54%,–,–
Cc1ccc(N2C(=O)/C(=C/C=C/c3ccco3)C(=O)NC2=S)cc1 [RA-0001799],2.8,–,–,85%,64%,–,–
O=c1cc(-c2ccc(O)c(O)c2)oc2cc(O)cc(O)c12 [RA-0001820],–,–,–,60%,62%,–,–
Cc1ncc2c(n1)COC21CN(C(=O)C2(c3ccccc3)CCCC2)C1 [RA-0001824],0.43,–,–,79%,69%,5.6 µM,–
O=C(CN1C(=O)C2C3CCC(C3)C2C1=O)OCC(=O)c1ccc(Cl)cc1 (stereo not shown) [RA-0001796],0.6,–,–,60%,55%,19.9 µM,–
N#Cc1c(SCc2ccccc2Cl)nsc1SCc1ccccc1Cl [RA-0001804],2.35,–,–,53%,64%,–,–
COc1cc(Cl)c(NS(=O)(=O)c2c(C)sc(C)c2-c2[nH]nc(C)c2C)c(OC)c1 [RA-0001819],0.7,–,–,66%,72%,0.6 µM,12.5 µM
Fc1cccc(Cl)c1Cn1cccc1C1=NC(CSCc2ccccc2)CO1 (stereo not shown) [RA-0001811],–,–,–,46%,56%,–,–
Cc1ccc(CSc2nsc(SCc3ccc(C)cc3)c2C#N)cc1 [RA-0001806],–,–,–,45%,53%,–,–
CSc1ccc(Cn2cccc2C2=NC(CSCc3ccc(F)cc3)CO2)cc1 (stereo not shown) [RA-0001812],–,–,–,48%,53%,–,–
CS(=O)(=O)NCC1CCOC2(CCN(C(=O)C3(c4ccccc4)CCCC3)CC2)C1 (stereo not shown) [RA-0001822],0.85,–,–,84%,81%,2.3 µM,236 µM
N#Cc1c(SCc2cccc(F)c2)nsc1SCc1cccc(F)c1 [RA-0001805],–,–,–,33%,51%,–,–
CCCC(C(=O)O)N1C(=O)/C(=C/c2ccc(-c3ccc(Br)cc3)o2)SC1=S (stereo not shown) [RA-0001801],1.4,12.8 µM,–,62%,55%,–,–
CN(Cc1ccco1)c1nc(-c2ccc(Cl)cc2)nc2ccccc12 [RA-0001817],–,–,–,49%,56%,–,–
Cc1c(Cl)ccc2c1NC(C(=O)O)C1CC=CC21 (stereo not shown) [RA-0001808],–,–,–,63%,69%,–,–
Cc1nc(CC2CCOC3(CCN(C(=O)C4(c5ccccc5)CCCC4)CC3)C2)no1 (stereo not shown) [RA-0001823],0.87,–,–,78%,82%,1.5 µM,202 µM
O=C(CSc1nnc2c(=O)n(-c3cccc(F)c3)ccn12)c1c[nH]c2ccccc12 [RA-0001818],–,–,–,50%,145%,–,–
O=C(C1CCCN(c2ccc(Sc3ccc(Br)cc3)nn2)C1)N1CCSCC1 (stereo not shown) [RA-0001816],1.2,7.2 µM,–,67%,71%,–,–
Cc1ccnc(OC2CCOC3(CCN(C(=O)C4(c5ccccc5)CCCC4)CC3)C2)c1 (stereo not shown) [RA-0001821],1.25,4 µM,–,70%,65%,–,14.2 µM
O=C1c2oc3ccccc3c(=O)c2C(c2ccc(O)cc2)N1Cc1ccccc1Cl (stereo not shown) [RA-0001802],1,–,–,37%,51%,14.8 µM,–
O=c1c(O)c(-c2ccc(O)c(O)c2)oc2cc(O)cc(O)c12 [RA-0001795],0.7,–,–,62%,55%,26.7 µM,–
Cc1cccc(CSc2nsc(SCc3cccc(C)c3)c2C#N)c1 [RA-0001803],–,–,–,57%,61%,–,–
Fc1cccc(CSC2=NC3(CCCCC3)Nc3ccccc32)c1 [RA-0001815],–,–,–,81%,77%,–,–
N#Cc1c(SCc2ccccc2)cc(SCc2ccccc2)cc1SCc1ccccc1 [RA-0001807],2,–,–,45%,60%,–,–
Brc1ccc(-c2csc(N3CCc4ccccc4C3)n2)cc1 [RA-0001809],–,–,–,58%,60%,–,–
CC1SC2(C(=O)Nc3ccccc32)N(CCc2c[nH]c3ccccc23)C1=O (stereo not shown) [RA-0001810],2.65,–,–,58%,76%,27.5 µM,–
